Results on 31 compounds are retold here after patent US9458153B2, “Dihydroquinolizinones for the treatment and prophylaxis of hepatitis B virus infection” (Hoffmann-La Roche Inc., priority 2014, dated 2016).

Counter-ions that a name gives are not always drawn.

One assay concerns HBsAg. In words: HBsAg assay (chemiluminescence immunoassay of secreted HBsAg in HepG2.2.15 culture supernatant). Particulars: HBsAg secretion reduced by 50% vs no drug control; HepG2.2.15 cells; CLIA kit. Format: cell-based, HBV. Put shortly: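 HepG2.2.15 cells, which constitutively express HBV, were seeded in duplicate and treated with three-fold serial compound dilutions at 1% DMSO final. Secreted HBsAg in culture supernatant was measured semi-quantitatively by chemiluminescence immunoassay. IC50 was extrapolated from dose-response curves.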
In turn, `COCCCOc1cc2c(c(Cl)c1F)-c1cc(=O)c(C(=O)O)cn1C(C(C)C)C2` (single isomer, unassigned; (-)) [Example 139, (−)-11-chloro-10-fluoro-6-isopropyl-9-(3-methoxypropoxy)-2-oxo-6,7-dihydrobenzo[a]quinolizine-3-carboxylic acid] returned an IC50 of 129 nM.
`CCC1Cc2cc(OCC3CC3)c(OC)cc2-c2cc(=O)c(C(=O)O)cn21` (single isomer, unassigned; (+)) [Example 31, (+)-9-(cyclopropylmethoxy)-6-ethyl-10-methoxy-2-oxo-6,7-dihydrobenzo[a]quinolizine-3-carboxylic acid] came in with an IC50 of 9 nM.
`COc1cc2c(cc1OCC(F)(F)F)CC(C(C)C)n1cc(C(=O)O)c(=O)cc1-2` (single isomer, unassigned; (-)) [Example 128, (−)-6-isopropyl-10-methoxy-2-oxo-9-(2,2,2-trifluoroethoxy)-6,7-dihydrobenzo[a]quinolizine-3-carboxylic acid] had an IC50 of 670 nM.
In turn, `COc1cc2c(cc1OCCCN1CCOCC1)CC(C(C)(C)C)n1cc(C(=O)O)c(=O)cc1-2` (single isomer, unassigned; (+)) [Example 193, (+)-6-tert-butyl-10-methoxy-9-(3-morpholinopropoxy)-2-oxo-6,7-dihydrobenzo[a]quinolizine-3-carboxylic acid] had an IC50 of 3 nM.
Regarding `COCCCOc1cc2c(c(Cl)c1F)-c1cc(=O)c(C(=O)O)cn1C(C(C)C)C2` (stereo not shown) [Example 137, 11-chloro-10-fluoro-6-isopropyl-9-(3-methoxypropoxy)-2-oxo-6,7-dihydrobenzo[a]quinolizine-3-carboxylic acid], inhibition was half-maximal at 15 nM (IC50).
In turn, `COCCCOc1cc2c(cc1OC)-c1cc(=O)c(C(=O)O)cn1C(CC(F)(F)F)C2` (single isomer, unassigned; (-)) [Example 201, (−)-10-methoxy-9-(3-methoxypropoxy)-2-oxo-6-(2,2,2-trifluoroethyl)-6,7-dihydrobenzo[a]quinolizine-3-carboxylic acid] came in with an IC50 of 14200 nM.
Take `CCOCCOc1cc2c(cc1OC)-c1cc(=O)c(C(=O)O)cn1C(CC)C2` (single isomer, unassigned; (-)) [Example 44, (−)-9-(2-ethoxyethoxy)-6-ethyl-10-methoxy-2-oxo-6,7-dihydrobenzo[a]quinolizine-3-carboxylic acid]: the IC50 came out at 5460 nM.
Consider `COc1cc2c(cc1OCCCCCCO)CC(C(C)(C)C)n1cc(C(=O)O)c(=O)cc1-2` (single isomer, unassigned; (-)) [Example 157, (−)-6-tert-butyl-9-(6-hydroxyhexoxy)-10-methoxy-2-oxo-6,7-dihydrobenzo[a]quinolizine-3-carboxylic acid], for which the IC50 worked out at 170 nM.
Compound `COc1cc2c(cc1OCCCCCCCCNC(=O)OC(C)(C)C)CC(C(C)(C)C)n1cc(C(=O)O)c(=O)cc1-2` (single isomer, unassigned; (-)) [Example 169, (−)-9-[8-(tert-butoxycarbonylamino)octoxy]-6-tert-butyl-10-methoxy-2-oxo-6,7-dihydrobenzo[a]quinolizine-3-carboxylic acid] gave an IC50 of 190 nM.
Take `COCCOc1cc2c(cc1OC)-c1cc(=O)c(C(=O)O)cn1C(C1(C)CC1)C2` (single isomer, unassigned; (-)) [Example 136, (−)-10-methoxy-9-(2-methoxyethoxy)-6-(1-methylcyclopropyl)-2-oxo-6,7-dihydrobenzo[a]quinolizine-3-carboxylic acid]: the IC50 was determined as 400 nM.
Same read-out and setting: for `COc1cc2c(cc1OCC(F)F)CC(C(C)C)n1cc(C(=O)O)c(=O)cc1-2` (single isomer, unassigned; (+)) [Example 142, (+)-9-(2,2-difluoroethoxy)-6-isopropyl-10-methoxy-2-oxo-6,7-dihydrobenzo[a]quinolizine-3-carboxylic acid] the value was 4 nM.
Compound `COc1cc2c(cc1OCCCCCCCCNC(=O)OC(C)(C)C)CC(C(C)(C)C)n1cc(C(=O)O)c(=O)cc1-2` (single isomer, unassigned; (+)) [Example 168, (+)-9-[8-(tert-butoxycarbonylamino)octoxy]-6-tert-butyl-10-methoxy-2-oxo-6,7-dihydrobenzo[a]quinolizine-3-carboxylic acid] gave an IC50 of 6 nM.
As to `COCCCOc1cc2c(cc1Cl)-c1cc(=O)c(C(=O)O)cn1C(C(C)C)C2` (stereo not shown) [Example 120, 10-chloro-6-isopropyl-9-(3-methoxypropoxy)-2-oxo-6,7-dihydrobenzo[a]quinolizine-3-carboxylic acid], half-maximal inhibition (IC50) was put at 2 nM.
`COc1cc2c(cc1OCCCN1CCOCC1)CC(C(C)(C)C)n1cc(C(=O)O)c(=O)cc1-2` (single isomer, unassigned; (-)) [Example 194, (−)-6-tert-butyl-10-methoxy-9-(3-morpholinopropoxy)-2-oxo-6,7-dihydrobenzo[a]quinolizine-3-carboxylic acid] had an IC50 of 270 nM.
Turning to `COCCOc1cc2c(cc1Cl)-c1cc(=O)c(C(=O)O)cn1C(C(C)C)C2` (stereo not shown) [Example 107, 10-chloro-6-isopropyl-9-(2-methoxyethoxy)-2-oxo-6,7-dihydrobenzo[a]quinolizine-3-carboxylic acid], the IC50 was 12 nM.
Consider `COCCCOc1cc2c(cc1OC)-c1cc(=O)c(C(=O)O)cn1C(CC(F)(F)F)C2` (single isomer, unassigned; (+)) [Example 200, (+)-10-methoxy-9-(3-methoxypropoxy)-2-oxo-6-(2,2,2-trifluoroethyl)-6,7-dihydrobenzo[a]quinolizine-3-carboxylic acid], for which it took 24 nM to reach half-maximal inhibition (IC50).
Turning to `CCC1Cc2cc(OCC3CCOCC3)c(OC)cc2-c2cc(=O)c(C(=O)O)cn21` (stereo not shown) [Example 48, 6-ethyl-10-methoxy-2-oxo-9-(tetrahydropyran-4-ylmethoxy)-6,7-dihydrobenzo[a]quinolizine-3-carboxylic acid], it took 24 nM to reach half-maximal inhibition (IC50).

Staying with this assay, now noted: HBsAg secretion reduced by 50% vs no drug control; HepG2.2.15 cells; CLIA kit; hydrochloride.
In turn, `COc1cc2c(cc1OCCN1CCOCC1)CC(C(C)(C)C)n1cc(C(=O)O)c(=O)cc1-2` (stereo not shown) [Example 189, 6-tert-butyl-10-methoxy-9-(2-morpholinoethoxy)-2-oxo-6,7-dihydrobenzo[a]quinolizine-3-carboxylic acid hydrochloride] showed an IC50 of 18 nM.

The same assay, now with this note: Hepatitis B virus, HepG2.2.15, HBsAg secretion reduced by 50% vs no drug control; HepG2.2.15 cells; CLIA kit.
`CCC1Cc2cc(OCCN3CCCC3=O)c(OC)cc2-c2cc(=O)c(C(=O)O)cn21` (stereo not shown) [Example 54, 6-ethyl-10-methoxy-2-oxo-9-[2-(2-oxopyrrolidin-1-yl)ethoxy]-6,7-dihydrobenzo[a]quinolizine-3-carboxylic acid] registered an IC50 of 130 nM.
In turn, `COc1cc2c(cc1OCCCn1cccn1)CC(C(C)(C)C)n1cc(C(=O)O)c(=O)cc1-2` (stereo not shown) [Example 216, 6-tert-butyl-10-methoxy-2-oxo-9-(3-pyrazol-1-ylpropoxy)-6,7-dihydrobenzo[a]quinolizine-3-carboxylic acid] showed an IC50 of 6 nM.
Still for that read-out and setting: for `CCC1Cc2cc(OCCS(C)(=O)=O)c(OC)cc2-c2cc(=O)c(C(=O)O)cn21` (stereo not shown) [Example 53, 6-ethyl-10-methoxy-9-(2-methylsulfonylethoxy)-2-oxo-6,7-dihydrobenzo[a]quinolizine-3-carboxylic acid] the value was 1540 nM; for `CCC1Cc2cc(OCCN3CCCC3)c(OC)cc2-c2cc(=O)c(C(=O)O)cn21` (stereo not shown) [Example 51, 6-ethyl-10-methoxy-2-oxo-9-(2-pyrrolidin-1-ylethoxy)-6,7-dihydrobenzo[a]quinolizine-3-carboxylic acid], 3900 nM; for `CCCc1cc2c(cc1OC)-c1cc(=O)c(C(=O)O)cn1C(CC)C2` (stereo not shown) [Example 81, 6-ethyl-10-methoxy-2-oxo-9-propyl-6,7-dihydrobenzo[a]quinolizine-3-carboxylic acid], 330 nM.
The same measure, in the same setting: with `CCOc1cc2c(cc1OC)-c1cc(=O)c(C(=O)O)cn1C(C)C2` (stereo not shown) [Example 4, 9-ethoxy-10-methoxy-6-methyl-2-oxo-6,7-dihydrobenzo[a]quinolizine-3-carboxylic acid] the figure was 98 nM.
As for `CCCCOc1cc2c(cc1OC)-c1cc(=O)c(C(=O)O)cn1C(CC)C2` (stereo not shown) [Example 15, 9-butoxy-6-ethyl-10-methoxy-2-oxo-6,7-dihydrobenzo[a]quinolizine-3-carboxylic acid], the IC50 is 16 nM.
In turn, `COc1cc2c(cc1OCCCCO)CC(C(C)(C)C)n1cc(C(=O)O)c(=O)cc1-2` (stereo not shown) [Example 158, 6-tert-butyl-9-(4-hydroxybutoxy)-10-methoxy-2-oxo-6,7-dihydrobenzo[a]quinolizine-3-carboxylic acid] returned an IC50 of 3 nM.
`CNc1cccc2c1-c1cc(=O)c(C(=O)O)cn1C(C)C2` (stereo not shown) [Example 64, 6-methyl-11-(methylamino)-2-oxo-6,7-dihydrobenzo[a]quinolizine-3-carboxylic acid] registered an IC50 of 24900 nM.
On to `COc1cc2c(cc1OCCCO)CC(C(C)C)n1cc(C(=O)O)c(=O)cc1-2` (stereo not shown) [Example 147, 9-(3-hydroxypropoxy)-6-isopropyl-10-methoxy-2-oxo-6,7-dihydrobenzo[a]quinolizine-3-carboxylic acid], for which the IC50 was found to be 30 nM.
For `COc1cc2c(cc1OC)-c1cc(=O)c(C(=O)O)cn1C(C1CC1)C2` (stereo not shown) [Example 97, 6-cyclopropyl-9,10-dimethoxy-2-oxo-6,7-dihydrobenzo[a]quinolizine-3-carboxylic acid], it took 70 nM to reach half-maximal inhibition (IC50).
Consider `COCCCOc1cc2c(cc1F)-c1cc(=O)c(C(=O)O)cn1C(C(C)C)C2` (stereo not shown) [Example 140, 10-fluoro-6-isopropyl-9-(3-methoxypropoxy)-2-oxo-6,7-dihydrobenzo[a]quinolizine-3-carboxylic acid], for which the IC50 was 31 nM.
Consider `CC1Cc2cc(N(C)Cc3ccccc3)ccc2-c2cc(=O)c(C(=O)O)cn21` (stereo not shown) [Example 63, 9-[benzyl(methyl)amino]-6-methyl-2-oxo-6,7-dihydrobenzo[a]quinolizine-3-carboxylic acid], for which inhibition was half-maximal at 7180 nM (IC50).
